The test system of one assay is E.coli (ATCC #8739). The experiment in a line: Preservative efficacy test (challenge test) in an anionic emulsion of pH 5.8. It counts as cell-based. The following applies: for LR (log reduction), day 2 / LR (log reduction), day 7 / LR (log reduction), day 14 / LR (log reduction), day 21 / LR (log reduction), day 28: log 10 reduction vs initial inoculum; for surviving microorganisms (total aerobic plate count), day 2: day 2 after inoculation; for surviving microorganisms (total aerobic plate count), day 2 / surviving microorganisms (total aerobic plate count), day 7 / surviving microorganisms (total aerobic plate count), day 14 / surviving microorganisms (total aerobic plate count), day 21 / surviving microorganisms (total aerobic plate count), day 28: storage 22.5±2.5° C., TNTC = too numerous to count; for surviving microorganisms (total aerobic plate count), day 7: day 7 after inoculation; for surviving microorganisms (total aerobic plate count), day 14: day 14 after inoculation; for surviving microorganisms (total aerobic plate count), day 21: day 21 after inoculation; for surviving microorganisms (total aerobic plate count), day 28: day 28 after inoculation. On the procedure:
This test is a reference method that is used to evaluate the preservative efficacy of a test formulation (in the present case an anionic emulsion of pH 5.8 comprising various fatty esters and fatty alcohols as oil bodies and glyceryl stearate citrate as the emulsifier. The formula was inoculated with known populations of microorganisms (0.2 ml of calibrated inoculums into 20 g of the test formulation) and the number of surviving microorganisms was calculated at defined intervals during a 28-day period. The inoculated test products were stored at 22.5±2.5° C. for the 28-day duration. The surviving microorganisms were enumerated via the total aerobic plate count method. For each time point, the log 10 reductions were calculated and were compared to the passing criteria.

In a further assay the test system is mold. The settings on record: moist alfalfa hay; cited from earlier work.
The conditions of assay [1]: administered intraperitoneally; cited from earlier work.
For assay [2] the following is noted: constituents of Tagetes mendocina; cited from earlier work.

Structures are written as SMILES.

`CC(C)=CCC[C@](C)(O)[C@@H]1CC=C(C)CC1` [0.6% D100, Bisabolol]: in the assay with E.coli (ATCC #8739), the “LR (log reduction), day 2” value is listed as “LR 0”; the “surviving microorganisms (total aerobic plate count), day 2” value is given as “TNTC”; the “LR (log reduction), day 7” value is listed as “LR 0”; the “surviving microorganisms (total aerobic plate count), day 7” value is “TNTC”. For the same compound, in the assay with E.coli (ATCC #8739), the “LR (log reduction), day 14” value is “LR 0”; the “surviving microorganisms (total aerobic plate count), day 14” value is given as “TNTC”; the “LR (log reduction), day 21” value was “LR 0”; the “surviving microorganisms (total aerobic plate count), day 21” value (shortened to “surviving microorganisms … day 21”) is “TNTC”. In the assay with E.coli (ATCC #8739), the “LR (log reduction), day 28” value was “LR 0” and the “surviving microorganisms (total aerobic plate count), day 28” value (“surviving microorganisms … day 28” for short) is on record as “TNTC”.
Consider `CC(=O)c1ccc(O)cc1` [0.25% SymSave H, 4-hydroxyacetophenone], for which the “prevention of mold growth” value in the assay with mold was “not prevent mold growth”. Moreover, in the assay on E.coli (ATCC #8739), the “LR (log reduction), day 2” value was “LR 0”; the “surviving microorganisms (total aerobic plate count), day 2” value is “TNTC”; the “LR (log reduction), day 7” value is “LR 0”; the “surviving microorganisms (total aerobic plate count), day 7” value is “TNTC”. In addition, in the assay with E.coli (ATCC #8739), the “LR (log reduction), day 14” value is on record as “LR 0”; the “surviving microorganisms (total aerobic plate count), day 14” value is reported as “TNTC”; the “LR (log reduction), day 21” value is listed as “LR 3.94”; the “surviving microorganisms … day 21” value was 6.4 × 10^2. Besides, in the assay on E.coli (ATCC #8739), the “LR (log reduction), day 28” value was “LR 5.35” and the “surviving microorganisms … day 28” value was 2.5 × 10^1. In the assay with E.coli (ATCC #8739) (listed as 0.35% SymSave H), the “LR (log reduction), day 14” value is “LR 2.49”; the “LR (log reduction), day 21” value was “LR 6”; the “surviving microorganisms … day 21” value is less than 10; the “LR (log reduction), day 28” value is listed as “LR 6”. The “surviving microorganisms … day 28” value with E.coli (ATCC #8739) (listed as 0.35% SymSave H) is less than 10. Also, the “reduction of subcutaneous inflammation” value in assay [1] is reported as “reducing subcuteaneous inflammation”. The antioxidant activity entry in assay [2] is given as “one of the active constituents”.
